Results published in patent US11000033B2, “Ketone or oxime compound, and herbicide” (NISSAN CHEMICAL CORPORATION, priority 2014, dated 2021).

Legend:
Type in all cases: in vivo
Apera spica-venti = assay: Test Example 5: herbicidal effect by foliage application, plastic box (symbol L); conditions: 320 g/ha, 3 weeks after application
Summary of the method: (§1)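 Visual herbicidal score, taken three weeks post-application, of seedlings sprayed on the foliage with water-diluted emulsion at a predetermined amount; plants were 14 days old, greenhouse-raised at 25° C. to 30° C.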

wheat = assay: Test Example 5: effect on crop by foliage application, plastic box (symbol e); conditions: 320 g/ha, 3 weeks after application
Summary of the method: (§2)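 Greenhouse test at 25° C. to 30° C. Seeds of crops and weeds were spot-sown in boxes of sterilized diluvial soil under roughly 1.5 cm soil cover, then grown for foliage treatment.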

Avena fatua = assay: Test Example 5: herbicidal effect by foliage application, plastic box (symbol I); conditions: 320 g/ha, 3 weeks after application
Summary of the method: as §1

beet = assay: Test Example 5: effect on crop by foliage application, plastic box (symbol f); conditions: 320 g/ha, 3 weeks after application
Summary of the method: as §2

Cyperus difformis = assay: Test Example 3: herbicidal effect by foliage application, Wagner pot (symbol E); conditions: application herbicide amount 320 g/ha
Summary of the method: (§3)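 Foliar spray of a water-diluted emulsion at a predetermined herbicide amount, applied to 14-day-old plants. Seedlings were raised in flooded alluvial soil (0.1–0.5 cm water) at 25–30 °C in a greenhouse. Injury was rated after 3 weeks against fixed criteria.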

Lolium multiflorum Lam. [1] = assay: Test Example 4: herbicidal effect by soil treatment (symbol K); conditions: application herbicide amount 320 g/ha
Summary of the method: (§4)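 Seeds were sown in sterilized diluvial soil, covered with about 1.5 cm of soil, and the soil surface was sprayed with a water-diluted emulsion of the compound at a predetermined rate. Plants grew in a greenhouse at 25° C. to 30° C.; effects were scored visually 3 weeks after application.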

Amaranthus retroflexus = assay: Test Example 4: herbicidal effect by soil treatment (symbol N); conditions: application herbicide amount 320 g/ha
Summary of the method: as §4

[2] = tested on: directly sowed rice plant; assay: Test Example 3: effect on crop by foliage application, Wagner pot (symbol b); conditions: application herbicide amount 320 g/ha
Summary of the method: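 Wagner pot (1/10000 are), alluvial soil, submerged 0.1–0.5 cm; sown E. crus-galli var. crus-galli, L. chinensis, C. difformis, rice; greenhouse 25–30 °C.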

Leptochloa chinensis = assay: Test Example 3: herbicidal effect by foliage application, Wagner pot (symbol D); conditions: application herbicide amount 320 g/ha
Summary of the method: as §3

soybean = assay: Test Example 4: effect on crop by soil treatment (symbol d); conditions: application herbicide amount 320 g/ha
Summary of the method: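 The test used sterilized diluvial soil. Seed was set down in spots and overlaid with about 1.5 cm of soil before growth in a greenhouse kept at 25° C. to 30° C.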

corn [3] = assay: Test Example 5: effect on crop by foliage application, plastic box (symbol c); conditions: 320 g/ha, 3 weeks after application
Summary of the method: as §2

Stellaria media = assay: Test Example 5: herbicidal effect by foliage application, plastic box (symbol P); conditions: 320 g/ha, 3 weeks after application
Summary of the method: as §1

rapeseed = assay: Test Example 5: effect on crop by foliage application, plastic box (symbol g); conditions: 320 g/ha, 3 weeks after application
Summary of the method: as §2

Abutilon theophrasti [4] = assay: Test Example 4: herbicidal effect by soil treatment (symbol M); conditions: application herbicide amount 320 g/ha
Summary of the method: as §4

[5] = tested on: Echinochloa crus-galli var. crus-galli; assay: Test Example 4: herbicidal effect by soil treatment (symbol H); conditions: application herbicide amount 320 g/ha
Summary of the method: as §4

Setaria viridis = assay: Test Example 5: herbicidal effect by foliage application, plastic box (symbol G); conditions: 320 g/ha, 3 weeks after application
Summary of the method: as §1

Chenopodium album = assay: Test Example 5: herbicidal effect by foliage application, plastic box (symbol O); conditions: 320 g/ha, 3 weeks after application
Summary of the method: as §1

corn [6] = assay: Test Example 4: effect on crop by soil treatment (symbol c); conditions: application herbicide amount 320 g/ha
Summary of the method: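 Greenhouse culture at 25° C. to 30° C. followed sowing of seed in spots on sterilized diluvial soil with a soil cover close to 1.5 cm thick.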

Lolium multiflorum Lam. [7] = assay: Test Example 5: herbicidal effect by foliage application, plastic box (symbol K); conditions: 320 g/ha, 3 weeks after application
Summary of the method: as §1

Digitaria ciliaris = assay: Test Example 4: herbicidal effect by soil treatment (symbol F); conditions: application herbicide amount 320 g/ha
Summary of the method: as §4

Abutilon theophrasti [8] = assay: Test Example 5: herbicidal effect by foliage application, plastic box (symbol M); conditions: 320 g/ha, 3 weeks after application
Summary of the method: as §1

SMILES | L: Apera spica-venti, herbicidal effect grade (Apera spica-venti) | e: wheat, effect on crop grade (wheat) | I: Avena fatua, herbicidal effect grade (Avena fatua) | f: beet, effect on crop grade (beet) | herbicidal effect on E, grade 0-5 (Cyperus difformis) | K: Lolium multiflorum Lam., herbicidal effect grade (Lolium multiflorum Lam. [1]) | N: Amaranthus retroflexus, herbicidal effect grade (Amaranthus retroflexus) | effect on crop b (directly sowed rice plant), grade 0-5 [2] | herbicidal effect on D (Leptochloa chinensis), grade 0-5 (Leptochloa chinensis) | d: soybean, effect on crop grade (soybean) | c: corn, effect on crop grade (corn [3]) | P: Stellaria media, herbicidal effect grade (Stellaria media) | g: rapeseed, effect on crop grade (rapeseed) | M: Abutilon theophrasti, herbicidal effect grade (Abutilon theophrasti [4]) | H: Echinochloa crus-galli var. crus-galli, herbicidal effect grade [5] | G: Setaria viridis, herbicidal effect grade (Setaria viridis) | O: Chenopodium album, herbicidal effect grade (Chenopodium album) | c: corn, effect on crop grade (corn [6]) | K: Lolium multiflorum Lam., herbicidal effect grade (Lolium multiflorum Lam. [7]) | F: Digitaria ciliaris, herbicidal effect grade (Digitaria ciliaris) | also measured
CON=C(C)CC1CC(O)=C(c2c(C)cc(-c3ccc(C(F)(F)F)cc3)cc2C)C1=O (mixture of isomers) [6-016] | 5 (Herbicidal ratio of 90% or more (almost completely withered)) | 0 (Herbicidal ratio of 5% or lower (almost no effect)) | 4 (Herbicidal ratio of 70% or higher and lower than 90%) | 0 (Herbicidal ratio of 5% or lower (almost no effect)) | 1 (Herbicidal ratio of 5% or higher and lower than 20%) | 0 (Herbicidal ratio of 5% or lower (almost no effect)) | 2 (Herbicidal ratio of 20% or higher and lower than 40%) | 5 (Herbicidal ratio of 90% or more (almost completely withered)) | 5 (Herbicidal ratio of 90% or more (almost completely withered)) | 0 (Herbicidal ratio of 5% or lower (almost no effect)) | 5 (Herbicidal ratio of 90% or more (almost completely withered)) | 0 (Herbicidal ratio of 5% or lower (almost no effect)) | 1 (Herbicidal ratio of 5% or higher and lower than 20%) | 0 (Herbicidal ratio of 5% or lower (almost no effect)) | 4 (Herbicidal ratio of 70% or higher and lower than 90%) | 5 (Herbicidal ratio of 90% or more (almost completely withered)) | 3 (Herbicidal ratio of 40% or higher and lower than 70%) | 0 (Herbicidal ratio of 5% or lower (almost no effect)) | 5 (Herbicidal ratio of 90% or more (almost completely withered)) | 5 (Herbicidal ratio of 90% or more (almost completely withered)) | M: Abutilon theophrasti, herbicidal effect grade (Abutilon theophrasti [8]): 0 (Herbicidal ratio of 5% or lower (almost no effect))
CON=C(C)CC1CC(O)=C(c2c(C)cc(-c3ccc(OC)cc3)cc2C)C1=O (mixture of isomers) [6-017] | 5 (Herbicidal ratio of 90% or more (almost completely withered)) | 1 (Herbicidal ratio of 5% or higher and lower than 20%) | 5 (Herbicidal ratio of 90% or more (almost completely withered)) | 0 (Herbicidal ratio of 5% or lower (almost no effect)) | 4 (Herbicidal ratio of 70% or higher and lower than 90%) | 4 (Herbicidal ratio of 70% or higher and lower than 90%) | 1 (Herbicidal ratio of 5% or higher and lower than 20%) | 5 (Herbicidal ratio of 90% or more (almost completely withered)) | 5 (Herbicidal ratio of 90% or more (almost completely withered)) | 0 (Herbicidal ratio of 5% or lower (almost no effect)) | 5 (Herbicidal ratio of 90% or more (almost completely withered)) | 1 (Herbicidal ratio of 5% or higher and lower than 20%) | 3 (Herbicidal ratio of 40% or higher and lower than 70%) | 0 (Herbicidal ratio of 5% or lower (almost no effect)) | 3 (Herbicidal ratio of 40% or higher and lower than 70%) | 5 (Herbicidal ratio of 90% or more (almost completely withered)) | 4 (Herbicidal ratio of 70% or higher and lower than 90%) | 0 (Herbicidal ratio of 5% or lower (almost no effect)) | 5 (Herbicidal ratio of 90% or more (almost completely withered)) | 5 (Herbicidal ratio of 90% or more (almost completely withered)) | M: Abutilon theophrasti, herbicidal effect grade (Abutilon theophrasti [8]): 0 (Herbicidal ratio of 5% or lower (almost no effect))
CON=C(C)CC1CC(O)=C(c2c(C)cc(-c3ccc(C)cc3)cc2C)C1=O (mixture of isomers) [6-018] | 5 (Herbicidal ratio of 90% or more (almost completely withered)) | 2 (Herbicidal ratio of 20% or higher and lower than 40%) | 4 (Herbicidal ratio of 70% or higher and lower than 90%) | 1 (Herbicidal ratio of 5% or higher and lower than 20%) | 5 (Herbicidal ratio of 90% or more (almost completely withered)) | 5 (Herbicidal ratio of 90% or more (almost completely withered)) | 0 (Herbicidal ratio of 5% or lower (almost no effect)) | 5 (Herbicidal ratio of 90% or more (almost completely withered)) | 5 (Herbicidal ratio of 90% or more (almost completely withered)) | 0 (Herbicidal ratio of 5% or lower (almost no effect)) | 5 (Herbicidal ratio of 90% or more (almost completely withered)) | 3 (Herbicidal ratio of 40% or higher and lower than 70%) | 3 (Herbicidal ratio of 40% or higher and lower than 70%) | 0 (Herbicidal ratio of 5% or lower (almost no effect)) | 5 (Herbicidal ratio of 90% or more (almost completely withered)) | 5 (Herbicidal ratio of 90% or more (almost completely withered)) | 3 (Herbicidal ratio of 40% or higher and lower than 70%) | 0 (Herbicidal ratio of 5% or lower (almost no effect)) | 5 (Herbicidal ratio of 90% or more (almost completely withered)) | 5 (Herbicidal ratio of 90% or more (almost completely withered)) | M: Abutilon theophrasti, herbicidal effect grade (Abutilon theophrasti [8]): 0 (Herbicidal ratio of 5% or lower (almost no effect))
CON=C(C)CC1CC(O)=C(c2c(C)cc(C#CCO)cc2C)C1=O (mixture of isomers) [6-025] | 5 (Herbicidal ratio of 90% or more (almost completely withered)) | 1 (Herbicidal ratio of 5% or higher and lower than 20%) | 5 (Herbicidal ratio of 90% or more (almost completely withered)) | 0 (Herbicidal ratio of 5% or lower (almost no effect)) | 4 (Herbicidal ratio of 70% or higher and lower than 90%) | 5 (Herbicidal ratio of 90% or more (almost completely withered)) | 0 (Herbicidal ratio of 5% or lower (almost no effect)) | 5 (Herbicidal ratio of 90% or more (almost completely withered)) | 5 (Herbicidal ratio of 90% or more (almost completely withered)) | 0 (Herbicidal ratio of 5% or lower (almost no effect)) | 4 (Herbicidal ratio of 70% or higher and lower than 90%) | 0 (Herbicidal ratio of 5% or lower (almost no effect)) | 3 (Herbicidal ratio of 40% or higher and lower than 70%) | 0 (Herbicidal ratio of 5% or lower (almost no effect)) | 0 (Herbicidal ratio of 5% or lower (almost no effect)) | 5 (Herbicidal ratio of 90% or more (almost completely withered)) | 0 (Herbicidal ratio of 5% or lower (almost no effect)) | 0 (Herbicidal ratio of 5% or lower (almost no effect)) | 5 (Herbicidal ratio of 90% or more (almost completely withered)) | 3 (Herbicidal ratio of 40% or higher and lower than 70%) | M: Abutilon theophrasti, herbicidal effect grade (Abutilon theophrasti [8]): 0 (Herbicidal ratio of 5% or lower (almost no effect))
